According to PMC4377976, “Bioactive Isopimarane Diterpenes from the Fungus, Epicoccum sp. HS-1, Associated with Apostichopus japonicus” (Marine Drugs, 2015):

Target: α-glucosidase
Experiment: p-nitrophenyl glycoside hydrolysis assay, absorbance at […] nm
Format: biochemical

Compound: C=C[C@]1(C)C=C2[C@@H](O)[C@@]3(O)OC[C@@]4(CCCC(C)(C)[C@@]43O)[C@@]2(O)CC1 [compound 2, 11-deoxydiaporthein A]
- IC50: 11.9 ± 0.4 µM

Compound: Oc1ccc(/C=C/c2cc(O)cc(O)c2)cc1 [Resveratrol, reference compound]
- IC50: 31.2 ± 4.4 µM

Compound: C=C[C@@]1(C)C[C@@H](O)C2=C(C(=O)[C@@]3(O)OC[C@@]24CCCC(C)(C)[C@@]43O)[C@H]1OC [compound 1, Isopimarane diterpene (1)]
- IC50: 4.6 ± 0.1 µM
